What is called chromatographic logP is a lipophilicity value derived from retention on a column.

This passage reports chromatographic logP, Efficacy and pest or weed control results from patent publication US10125126B2, “N-cycloalkyl-N-[(heterocyclylphenyl)methylene]-(thio)carboxamide derivatives” (BAYER CROPSCIENCE AG, priority 2012, dated 2018).

The nature of series [1]: log P by HPLC on a reversed-phase column (C 18), EEC Directive 79/831 Annex V.A8. The following applies: logP. Type of series: physicochemical. An outline of the steps: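 Reversed-phase C18 HPLC at 40° C with a linear 10% to 90% acetonitrile gradient against 0.1% aqueous formic acid. Log P is read from retention time by linear interpolation between successive unbranched alkan-2-ones (C3–C16) of known log P. UV spectra from 200 to 400 nm, taken at chromatographic peak maxima, give lambda-max.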

For series [2], the system named is Blumeria graminis f.sp. hordei. Briefly: In vivo preventive test on Blumeria graminis (barley). The conditions noted are these: 500 ppm of active ingredient, evaluated 7 days after inoculation. The protocol:
(§1) In Vivo Preventive Test on Blumeria graminis (Barley) [table] To produce a suitable preparation of active compound, 1 part by weight of active compound or active compound combination is mixed with the stated amounts of solvent and emulsifier, and the concentrate is diluted with water to the desired concentration. To test for preventive activity, young plants are sprayed with the preparation of active compound or active compound combination at the stated rate of application. After the spray coating has been dried, the plants are dusted with spores of Blumeria graminis f.sp. hordei.

Another series concerns Leptosphaeria nodorum. Put plainly: In vivo preventive test on Leptosphaeria nodorum (wheat). The conditions noted are these: 500 ppm of active ingredient, evaluated 8 days after inoculation. The protocol:
as §1, with “Leptosphaeria nodorum Test (Wheat)” for “Blumeria graminis (Barley)”, “sprayed” for “dusted”, “a spore suspension” for “spores”, “Leptosphaeria nodorum. The plants remain for 48 hours in an incubation cabinet at approximately 20° C. and a relative atmospheric humidity of approximately 100%.” for “Blumeria graminis f.sp. hordei.”

The test system of a further series is Pyrenophora teres. Put plainly: In vivo preventive test on Pyrenophora teres (barley). The conditions noted are these: 500 ppm of active ingredient; barley plants; 14 days after contamination. An outline of the steps: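 Barley ("Plaisant") grown at 22° C was sprayed at the 1-leaf stage (10 cm) with active ingredient in acetone/tween/DMSO/water, with solvent-only controls. After 24 h, leaves were inoculated with Pyrenophora teres spores (12 000 spores per mL) from 12-day cultures. % efficacy versus controls graded 14 days post-contamination.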

Another series relates to Puccinia recondita. Put plainly: In vivo preventive test on Puccinia recondita (brown rust on wheat). The conditions noted are these: 500 ppm of active ingredient; wheat plants; 12 days after contamination. An outline of the steps:
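Wheat plants ("Scipion") at 1-leaf stage, grown at 22° C, were sprayed with compound, then inoculated 24 h later with Puccinia recondita spores (100 000 spores per mL). Efficacy (%) graded 12 days after inoculation relative to solvent-treated controls.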

A further series concerns Sphaerotheca fuliginea. Put plainly: In vivo preventive test on Sphaerotheca fuliginea (powdery mildew on cucurbits). The conditions noted are these: Podosphaera fuliginea, 288 h, 500 ppm of active ingredient; gherkin plants; 12 days after contamination; read-out: Efficacy. An outline of the steps: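 Gherkin plants ("Vert petit de Paris") grown at 24 °C were sprayed at cotyledon stage Z11; controls received acetone/tween/DMSO/water without active. Inoculation 24 h later by spraying cotyledons with 100 000 spores/mL. Efficacy (%) graded 12 days post-contamination versus controls.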

For a further series, the system named is Uromyces appendiculatus. Put plainly: In vivo preventive test on Uromyces appendiculatus (bean rust). The following applies: 500 ppm of active ingredient; bean plants; 11 days after contamination. An outline of the steps:
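Saxa bean plants at 2-leaf stage, grown at 24° C., sprayed preventively with compound; 24 h later inoculated with U. appendiculatus spores (150 000 spores per mL). Percent efficacy graded 11 days after inoculation versus solvent-treated controls.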

A further series relates to Venturia inaequalis. Briefly: In vivo preventive test on Venturia inaequalis (apples). The conditions noted are these: 100 ppm of active ingredient, evaluated 10 days after inoculation. The protocol: In Vivo Preventive Test on Venturia inaequalis (apples) [table] To produce a suitable preparation of active compound, 1 part by weight of active compound is mixed with the stated amounts of solvent and emulsifier, and the concentrate is diluted with water to the desired concentration. To test for preventive activity, young plants are sprayed with the preparation of active compound at the stated rate of application. After the spray coating has dried on, the plants are inoculated with an aqueous conidia suspension of the causal agent of apple scab (Venturia inaequalis) and then remain for 1 day in an incubation cabinet at approximately 20° C. and a relative atmospheric humidity of 100%. The plants are then placed in a greenhouse at approximately 21° C. and a relative atmospheric humidity of approximately 90%.

SMILES strings stand for the structures.

Compound `CC(C)c1ccc(-c2csc3ccccc23)cc1CN(C(=O)c1c(C(F)F)nn(C)c1F)C1CC1` [I.157, N-[5-(1-benzothiophen-3-yl)-2-isopropylbenzyl]-N-cyclopropyl-3-(difluoromethyl)-5-fluoro-1-methyl-1H-pyrazole-4-carboxamide] returned a chromatographic logP in series [1] of 5.17. For the same compound, the Efficacy in series [2] came out at 100%; with Leptosphaeria nodorum, 100%; in the series on Pyrenophora teres, 93%; in the series with Puccinia recondita, 98%; with Uromyces appendiculatus, 100%; with Venturia inaequalis, 100%. Also, in the series with Sphaerotheca fuliginea, the pest or weed control at 500 ppm turned out to be 100%.
